Data as given in patent USRE49735E1 (BRISTOL-MYERS SQUIBB COMPANY, priority 2010, dated 2023).
Several values for one entry are separate records, joined by “and”; a condition that tells them apart may be missing. Identical values can stand only once.

Target: human mGluR5A (Homo sapiens, UniProt P41594)
Test: mGluR5 FLIPR Assay
Format: cell-based
Conditions: positive modulator activity; HEK293 (ZF) cells with human mGluR5A and rat GLAST; Ca++ response to ~EC10 glutamate
Experimental: HEK293 (ZF) cells stably transfected with human mGluR5A (pIRES neo) and the rat glutamate-aspartate transporter (GLAST; pIRES puro) are grown in a monolayer culture at 37° C. in 5% CO2 and fed with Minimum Essential Medium (MEM) supplemented with 10% dialysed fetal bovine serum. 24 hours prior to assay, cells are enzymatically dissociated from the culture flask (Trypsin, 0.25%), spun down (1000 rpm, 3 min), resuspended, and plated on Greiner black clear bottomed PDL-coated 384-well plates at a density of 30 thousand cells/well. […] Plates are incubated in dye at 37° C. in 5% CO2 for 60 minutes prior to delivery of test compounds in assay buffer. Test compounds are incubated with cells in the presence of dye for 10 minutes prior to being read on the FLIPR platform (Molecular Devices). A Ca^++ signal is induced in the assay plates via the delivery of an ˜EC10 concentration of the endogenous agonist 1-glutamate; images are acquired at 1 Hz for 100 seconds post-delivery of agonist stimulus. Positive modulator activity (i.e. the ability of test compounds to increase the Ca^++ response to a sub-maximal concentration of agonist) is normalized to a saturating concentration of a known mGluR5 PAM run in each assay plate. An EC50 concentration of test compounds is derived from 4-parameter logistic curve fits of transformed fluoresence data via proprietary software suite.

Sequence of human mGluR5A (P41594 21-1180 isoform P41594-2): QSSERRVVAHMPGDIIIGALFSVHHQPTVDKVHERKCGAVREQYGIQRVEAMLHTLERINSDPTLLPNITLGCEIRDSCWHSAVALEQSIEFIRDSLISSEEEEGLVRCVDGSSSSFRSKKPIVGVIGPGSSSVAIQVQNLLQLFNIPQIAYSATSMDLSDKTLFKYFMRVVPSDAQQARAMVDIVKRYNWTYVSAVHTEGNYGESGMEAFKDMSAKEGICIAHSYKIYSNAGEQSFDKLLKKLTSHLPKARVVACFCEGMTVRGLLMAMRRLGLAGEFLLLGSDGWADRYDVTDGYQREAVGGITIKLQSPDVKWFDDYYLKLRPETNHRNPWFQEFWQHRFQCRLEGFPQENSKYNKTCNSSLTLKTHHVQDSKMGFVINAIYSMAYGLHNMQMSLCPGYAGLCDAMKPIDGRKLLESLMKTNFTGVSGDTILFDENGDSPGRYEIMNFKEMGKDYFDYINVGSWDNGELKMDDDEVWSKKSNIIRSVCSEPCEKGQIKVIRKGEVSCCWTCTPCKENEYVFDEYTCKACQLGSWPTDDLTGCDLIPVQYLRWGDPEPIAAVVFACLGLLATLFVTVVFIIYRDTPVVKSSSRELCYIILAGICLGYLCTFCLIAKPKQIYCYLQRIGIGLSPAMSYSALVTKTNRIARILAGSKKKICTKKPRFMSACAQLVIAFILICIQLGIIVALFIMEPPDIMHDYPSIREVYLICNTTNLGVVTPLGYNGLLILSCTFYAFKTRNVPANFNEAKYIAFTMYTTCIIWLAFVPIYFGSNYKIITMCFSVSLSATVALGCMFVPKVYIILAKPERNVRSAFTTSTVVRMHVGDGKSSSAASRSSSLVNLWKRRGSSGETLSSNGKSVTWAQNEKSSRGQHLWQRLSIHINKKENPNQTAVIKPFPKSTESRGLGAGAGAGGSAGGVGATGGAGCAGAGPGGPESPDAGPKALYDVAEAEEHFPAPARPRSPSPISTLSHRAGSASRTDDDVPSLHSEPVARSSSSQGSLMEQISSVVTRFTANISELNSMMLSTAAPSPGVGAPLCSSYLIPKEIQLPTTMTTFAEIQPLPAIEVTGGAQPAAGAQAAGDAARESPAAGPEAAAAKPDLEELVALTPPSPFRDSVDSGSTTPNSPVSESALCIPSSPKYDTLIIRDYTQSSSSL

| Structure (SMILES) | EC50 |
| --- | --- |
| C[C@@]1(c2cccc(C#Cc3ccccc3)n2)NC(=O)O[C@H]1c1ccccc1F (single isomer, unassigned) [Example 379] | > 1000 nM |
| COc1cccc([C@H]2OC(=O)N[C@@H]2c2cccc(C#Cc3ncccc3F)c2)c1 [Example 196] | < 100 nM |
| O=C1N[C@H](c2cccc(C#Cc3ccccc3)c2)[C@@H](c2ccncn2)O1 [Example 239] | < 100 nM |
| O=C1N[C@@H](c2cccc(C#Cc3ccccc3)n2)[C@H](c2c(F)cc(F)cc2F)O1 (single isomer, unassigned) [Example 314] | > 1000 nM |
| O=C1N[C@H](c2cc(C#Cc3ccccc3)ccn2)[C@@H](c2ccccc2)O1 (single isomer, unassigned) [Example 18] | > 30000 nM |
| O=C1N[C@H](c2cncc(C#Cc3ccccc3)c2)[C@@H](c2cccs2)O1 (single isomer, unassigned) [Example 346] | < 100 nM and 13.3 nM |
| O=C1N[C@H](c2ccnc(C#Cc3cccc(F)c3)c2)[C@@H](c2cccnc2)O1 [Example 252] | > 1000 nM |
| COc1cccc([C@H]2OC(=O)N[C@@H]2c2cccc(C#Cc3cccnc3OC)c2)c1 [Example 78, (4R,5R)-5-(3-Methoxyphenyl)-4-(3-((2-methoxypyridin-3-yl)ethynyl)phenyl)oxazolidin-2-one] | > 1000 nM |
| O=C1N[C@H](c2cccc(C#Cc3ccc(F)cc3)n2)[C@@H](c2ccccc2)O1 (single isomer, unassigned) [Example 16] | < 100 nM |
| O=C1N[C@H](c2cccc(C#Cc3ccccc3)n2)[C@@H](c2c(F)cc(F)cc2F)O1 (single isomer, unassigned) [Example 313] | 100 to 1000 nM |
| Cc1ccccc1C#Cc1cncc([C@H]2NC(=O)O[C@@H]2c2cc(F)ccc2F)c1 [Example 390, (4R,5R)-5-(2,5-difluorophenyl)-4-(5-(o-tolylethynyl)pyridin-3-yl)oxazolidin-2-one] | 100 to 1000 nM |
| O=C1N[C@H](c2cc(C#Cc3ccccc3Cl)ccn2)[C@@H](c2ccc(F)cc2)O1 (single isomer, unassigned) [Example 351] | 100 to 1000 nM |
| O=C1N[C@H](c2ccnc(C#Cc3ccccn3)c2)[C@@H](c2ccccc2)O1 [Example 22, (4R,5R)-5-Phenyl-4-(2-(pyridin-2-ylethynyl)pyridin-4-yl)oxazolidin-2-one] | > 1000 nM |
| O=C1N[C@H](c2cc(C#Cc3cccc(F)c3)ccn2)[C@@H](c2ccc(F)cc2)O1 (single isomer, unassigned) [Example 355] | < 100 nM |
| C[C@]1(c2ccc(F)cc2)OC(=O)N[C@H]1c1cncc(C#Cc2ccccc2)c1 [Example 206] | 100 to 1000 nM |
| COc1ccccc1[C@@H]1OC(=O)N[C@@H]1c1cncc(C#Cc2ccccc2)c1 (single isomer, unassigned) [Example 335] | > 1000 nM |
| COc1cccc([C@H]2OC(=O)N[C@@H]2c2cccc(C#Cc3ccccc3F)n2)c1 [Example 9, (4R,5R)-4-(6-((2-Fluorophenyl)ethynyl)pyridin-2-yl)-5-(3-methoxyphenyl)oxazolidin-2-one] | > 1000 nM |
| O=C1N[C@H](c2cccc(C#Cc3ccccc3)c2)[C@@H](c2ccccn2)O1 [Example 231] | < 100 nM |
| O=C1N[C@@H](c2cccc(C#Cc3ccccc3)n2)[C@H](c2ccc(F)cc2)O1 (single isomer, unassigned) [Example 136] | > 1000 nM |
| COc1cccc([C@H]2OC(=O)N[C@@H]2c2cccc(C#Cc3ccncc3)c2)c1 [Example 51] | < 100 nM |
| COc1cccc([C@@H]2OC(=O)N[C@H]2c2cccc(C#Cc3ccccc3C(F)(F)F)c2)c1 [Example 126, (4S,5S)-5-(3-methoxyphenyl)-4-(3-((2-(trifluoromethyl)phenyl)ethynyl)phenyl)oxazolidin-2-one] | > 30000 nM |
| COc1cccc([C@H]2OC(=O)N[C@@H]2c2cccc(C#Cc3ccc(OC)nc3)c2)c1 [Example 71, (4R,5R)-5-(3-Methoxyphenyl)-4-(3-((6-methoxypyridin-3-yl)ethynyl)phenyl)oxazolidin-2-one] | 100 to 1000 nM and 325 nM |
| N#Cc1ccc(C#Cc2cncc([C@H]3NC(=O)O[C@@H]3c3cc(F)ccc3F)c2)cc1 [Example 391, 4-((5-((4R,5R)-5-(2,5-difluorophenyl)-2-oxooxazolidin-4-yl)pyridin-3-yl)ethynyl)benzonitrile] | > 1000 nM |
| O=C1N[C@@H](c2cccc(C#Cc3cnccn3)n2)[C@H](c2ccc(F)cc2)O1 (single isomer, unassigned) [Example 369] | > 1000 nM |
| O=C1N[C@H](c2cncc(C#Cc3ccccc3)c2)[C@@H](c2cccc(Cl)c2)O1 (single isomer, unassigned) [Example 362] | < 100 nM |

| Structure (SMILES) | EC50 |
| --- | --- |
| COc1cccc([C@H]2OC(=O)N[C@@H]2c2cccc(C#Cc3csc(C)n3)c2)c1 [Example 52, (4R,5R)-5-(3-Methoxyphenyl)-4-(3-((2-methylthiazol-4-yl)ethnyl)phenyl)oxazolidin-2-one] | > 30000 nM |
| O=C1N[C@H](c2cccc(C#Cc3cccnc3)n2)[C@@H](c2ccccc2)O1 (single isomer, unassigned) [Example 26] | 100 to 1000 nM and 367 nM |
| O=C1N[C@H](c2nccc(C#Cc3ccccc3)n2)[C@@H](c2cccc(F)c2)O1 [Example 273] | > 3000 nM |
| C[C@]1(c2cncc(C#Cc3ccccc3)c2)NC(=O)O[C@@H]1c1ccccc1 (single isomer, unassigned) [Example 138] | < 100 nM and 0.43 nM |
| O=C1N[C@H](c2cncc(C#Cc3ccccc3)c2)[C@@H](c2ccccc2F)O1 [Example 404, (4R,5R)-5-(2-Fluorophenyl)-4-(5-(phenylethynyl)pyridin-3-yl)oxazolidin-2-one] | < 100 nM |
| O=C1N[C@@H](c2cc(C#Cc3ccccc3)ccn2)[C@H](c2ccc(F)cc2)O1 (single isomer, unassigned) [Example 298] | 100 to 1000 nM and 232 nM |
| O=C1N[C@@H](c2cccc(C#Cc3ccccc3)n2)[C@H](c2ccccc2)O1 (single isomer, unassigned) [Example 11] | > 1000 nM |
| Cc1ccc(C#Cc2cncc([C@H]3NC(=O)O[C@@H]3c3cc(F)ccc3F)c2)cc1 [Example 381, (4R,5R)-5-(2,5-Difluorophenyl)-4-(5-(p-tolylethynyl)pyridin-3-yl)oxazolidin-2-one] | 100 to 1000 nM |
| O=C1N[C@H](c2cncc(C#Cc3cccc(Cl)c3)c2)[C@@H](c2cccc(F)c2F)O1 [Example 280] | > 1000 nM |
| O=C1N[C@@H](c2cncc(C#Cc3cncc(F)c3)c2)[C@H](c2ccc(F)cc2)O1 (single isomer, unassigned) [Example 44] | > 1000 nM |
| COc1cccc([C@H]2OC(=O)N[C@@H]2c2cccc(C#Cc3cccc(C)n3)c2)c1 [Example 48, (4R,5R)-5-(3-Methoxyphenyl)-4-(3-((6-methylpyridin-2-yl)ethnyl)phenyl)oxazolidin-2-one] | > 1000 nM |
| O=C1N[C@H](c2cc(C#Cc3cccnc3)cnc2F)[C@@H](c2ccc(C(F)(F)F)cc2)O1 [Example 145, (4R,5R)-4-(2-Fluoro-5-(pyridin-3-ylethynyl)pyridin-3-yl)-5-(4-(trifluoromethyl)phenyl)oxazolidin-2-one] | < 100 nM |
| O=C1N[C@H](c2cncc(C#Cc3ccccc3F)c2)[C@@H](c2cc(F)ccc2F)O1 [Example 282] | < 100 nM |
| O=C1N[C@H](c2cncc(C#Cc3cncc(F)c3)c2)[C@@H](c2cc(F)cc(F)c2)O1 [Example 171] | < 100 nM |
| O=C1N[C@H](c2cncc(C#Cc3ccccn3)c2)[C@@H](c2cccc(F)c2)O1 [Example 34, (4R,5R)-5-(3-Fluorophenyl)-4-(5-(pyridin-2-ylethynyl)pyridin-3-yl)oxazolidin-2-one] | > 1000 nM |
| O=C1N[C@@H](c2cc(C#Cc3cccc(Cl)c3)ccn2)[C@H](c2ccc(F)cc2)O1 (single isomer, unassigned) [Example 348] | > 1000 nM |
| COc1cccc([C@H]2OC(=O)N[C@@H]2c2cncc(C#Cc3csc(C)n3)c2)c1 (single isomer, unassigned) [Example 31] | > 1000 nM |
| O=C1N[C@H](c2cc(C#Cc3ccccn3)cnc2F)[C@@H](c2ccc(F)cc2)O1 [Example 156, (4R,5R)-4-(2-Fluoro-5-(pyridin-2-ylethynyl)pyridin-3-yl)-5-(4-fluorophenyl)oxazolidin-2-one] | < 100 nM |
| O=C1N[C@@H](c2cccc(C#Cc3ccccc3)c2)[C@@H](c2ccccc2)O1 [Example 97, (4S,5R)-5-phenyl-4-(3-(phenylethynyl)phenyl)oxazolidin-2-one] | > 1000 nM |
| COc1cccc([C@@H]2OC(=O)N[C@H]2c2cccc(C#Cc3ccc(F)cc3)c2)c1 [Example 132, (4S,5S)-4-(3-((4-fluorophenyl)ethynyl)phenyl)-5-(3-methoxyphenyl)oxazolidin-2-one] | > 1000 nM |
| O=C1N[C@@H](c2cccc(C#Cc3cccnc3)c2)[C@H](c2ccncn2)O1 [Example 240] | > 1000 nM |
| O=C1N[C@H](c2cccc(C#Cc3ccccc3F)n2)[C@@H](c2ccccc2)O1 [Example 12] | > 1000 nM |
| O=C1N[C@H](c2cncc(C#Cc3ccccc3F)c2)[C@@H](c2cccc(F)c2F)O1 [Example 284] | < 100 nM |
| O=C1N[C@@H](c2cncc(C#Cc3ccccc3)c2)[C@H](c2ccccc2)O1 (single isomer, unassigned) [Example 39] | < 100 nM |
| O=C1N[C@H](c2cncc(C#Cc3cncc(F)c3)c2)[C@@H](c2ccc(F)c(F)c2)O1 [Example 175] | < 100 nM |
